Data taken from ChEMBL document CHEMBL3137667, “[Drug-induced liver injury; fourteenth updated edition of the bibliographic database of liver injuries and related drugs]” (Gastroenterol Clin Biol, 2004).

Assays:
[1] = human
[2] = Highest frequency of moderate liver toxicity observed during clinical trials, expressed as a percentage. [column '% BIOL' in source]; conditions: human
[3] = human; remark: listed apart in the source
[4] = human; remark: listed apart in the source
[5] = human; remark: listed apart in the source
[6] = Highest frequency of acute liver toxicity observed during clinical trials, expressed as a percentage. [column '% AIGUE' in source]; conditions: human
[7] = human; remark: listed apart in the source
[8] = human, serum
[9] = human; remark: listed apart in the source
[10] = Presence of at least one case with successful reintroduction. [column 'REINT' in source]; conditions: human
[11] = human, serum; remark: listed apart in the source
[12] = human, serum, 4383 h
[13] = human; remark: listed apart in the source
[14] = human; remark: listed apart in the source
[15] = Times to onset, minimal and maximal, observed in the indexed observations. [column 'DELAI' in source]; conditions: human
[16] = human; remark: listed apart in the source
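Throughout, for Hepatotoxicity (association with vascular disease): count of indexed literature references reporting vascular liver injury in humans, e.g. peliosis hepatitis, hepatic veno-occlusive disease or Budd-Chiari syndrome.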
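Throughout, for Hepatotoxicity (benign tumour): value is a count of indexed literature references citing a benign tumour confirmed by histopathology.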
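Throughout, for Hepatotoxicity (choleostasis): human cholestatic liver injury, shown by histopathology or by peak ALT or AST elevation over alkaline phosphatase ratio below 2, value counts indexed literature reports.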
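Throughout, for Hepatotoxicity (chronic liver disease): chronic liver injury confirmed by histopathology or persistently raised serum aminotransferase activity beyond 6 months, value given as the count of indexed literature references.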
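Throughout, for Hepatotoxicity (cirrhosis): value is a count of indexed literature references reporting cirrhosis confirmed by histopathology.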
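Throughout, for Hepatotoxicity (cytolytic): human cytolytic liver injury, shown by histopathology or by a ratio above 5 of peak ALT or AST elevation to alkaline phosphatase elevation, value counts indexed references.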
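Throughout, for Hepatotoxicity (granulomatous hepatitis): value is a count of indexed literature references reporting granulomatous liver disease confirmed by histopathology.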
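Throughout, for Hepatotoxicity (malignant tumour): malignant tumour confirmed by histopathology, value gives the count of indexed literature references reporting it.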
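Throughout, for Hepatotoxicity (severe hepatitis): human clinical data: severe hepatitis, meaning potentially life-threatening liver failure or clinically observed cases, the value counts how many indexed literature references report it.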
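Throughout, for Hepatotoxicity (steatosis): steatosis confirmed by histopathology, value is the count of indexed references.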

| Structure (SMILES) | Hepatotoxicity (cytolytic) [1] | Hepatotoxicity (moderate) [2] [%] | Hepatotoxicity (choleostasis) [3] | Hepatotoxicity (severe hepatitis) [4] | Hepatotoxicity (benign tumour) [5] | Hepatotoxicity (acute) [6] [%] | Hepatotoxicity (steatosis) [7] | Hepatotoxicity (moderate) [8] | Hepatotoxicity (association with vascular disease) [9] | Hepatotoxicity (successful reintroduction) [10] | Hepatotoxicity (acute) [11] | Hepatotoxicity (chronic liver disease) [12] | Hepatotoxicity (cirrhosis) [13] | Hepatotoxicity (granulomatous hepatitis) [14] | Hepatotoxicity (time to onset) [15] | Hepatotoxicity (malignant tumour) [16] | other results |
| --- | --- | --- | --- | --- | --- | --- | --- | --- | --- | --- | --- | --- | --- | --- | --- | --- | --- |
| C[C@]12C/C(=C/O)C(=O)C[C@@H]1CC[C@@H]1[C@@H]2CC[C@@]2(C)[C@H]1CC[C@]2(C)O [OXYMETHOLONE] | 1 | 50 | 3 | 2 | 11 | 52.8 | 0 | 2 | 12 | yes | 10 | 0 | 0 | 0 | 11 days - 15 years | 14 | – |
| C1CNCCN1 [PIPERAZINE] | – | – | – | – | 0 | – | 0 | 0 | 0 | yes | 2 | 0 | 0 | – | 3 weeks - 1 month | 0 | Hepatotoxicity (cytolytic) ([1]; Liver): 1; Hepatotoxicity (moderate) ([2]; Liver): 0%; Hepatotoxicity (choleostasis) ([3]; Liver): 2; Hepatotoxicity (severe hepatitis) ([4]; Liver): 0; Hepatotoxicity (acute) ([6]; Liver): 0%; Hepatotoxicity (granulomatous hepatitis) ([14]; Liver): 0 |
| CCCN(CCC)S(=O)(=O)c1ccc(C(=O)O)cc1 [PROBENECID] | 1 | 0 | 0 | 1 | 0 | 0 | 0 | 0 | 0 | yes | 1 | 0 | 0 | 1 | 2 years | 0 | – |
| CC(NCCc1ccc(O)cc1)C(O)c1ccc(O)cc1 (stereo not given) [RITODRINE] | 6 | 40 | 1 | 0 | 0 | 0.9 | 0 | 6 | 0 | yes | 6 | 0 | 0 | 0 | 4 days - 9 weeks | 0 | – |
| O=C1NS(=O)(=O)c2ccccc21 [SACCHARIN] | – | – | – | – | 0 | – | 0 | 0 | 0 | yes | 1 | 0 | 0 | – | 2 weeks - 2 months | 0 | Hepatotoxicity (cytolytic) ([1]; Liver): 1; Hepatotoxicity (moderate) ([2]; Liver): 0%; Hepatotoxicity (choleostasis) ([3]; Liver): 0; Hepatotoxicity (severe hepatitis) ([4]; Liver): 0; Hepatotoxicity (acute) ([6]; Liver): 0%; Hepatotoxicity (granulomatous hepatitis) ([14]; Liver): 0 |
| CC(=O)S[C@@H]1CC2=CC(=O)CC[C@]2(C)[C@H]2CC[C@@]3(C)[C@@H](CC[C@@]34CCC(=O)O4)[C@H]12 [SPIRONOLACTONE] | 3 | 0 | 3 | 0 | 0 | 0 | 0 | 0 | 0 | yes | 3 | 0 | 0 | 0 | 6 weeks - 2 months | 0 | – |
| O=c1[nH]c(=O)n(C2CCCO2)cc1F (stereo not given) [TEGAFUR] | 1 | 17.5 | 0 | 3 | 0 | 0 | 0 | 2 | 0 | yes | 3 | 2 | 1 | 0 | 1.5 months - 9 months | 0 | – |
| O=c1cc[nH]c(=S)[nH]1 [THIOURACIL] | 1 | 0 | 1 | 1 | 0 | 5.9 | 0 | 0 | 0 | yes | 5 | 0 | 0 | 0 | 1 day - 3 weeks | 0 | – |
| Cc1c(Cl)cccc1Nc1ccccc1C(=O)O [TOLFENAMIC ACID] | 1 | 0 | 0 | 0 | 0 | 0 | 0 | 0 | 0 | yes | 2 | 0 | 0 | 0 | 6 months | 0 | – |
| COc1cc(C(=O)NS(=O)(=O)c2ccccc2C)ccc1Cc1cn(C)c2ccc(NC(=O)OC3CCCC3)cc12 [ZAFIRLUKAST] | 8 | 4.1 | 0 | 3 | 0 | 0.5 | 0 | 4 | 0 | yes | 8 | 0 | 0 | 0 | 2 months - 1 year | 0 | – |
